Source: ChEMBL document CHEMBL1201862, “PubChem BioAssay data set” (2004)
Calls of active or inactive are those of the source.

Assays:
[1] = molecular target: Oxytocin receptor (Homo sapiens, UniProt P30559); test: Fluorescence-based cell-based high throughput dose response assay for agonists of the Oxytocin Receptor (OXTR). [Related pubchem assays: 2435 (Primary screen (OXTR agonists in singlicate)), 434991 (Counterscreen (V1R agonists in triplicate)), 2482 (Summary (OXTR agonists)), 434963 (Confirmation screen (OXTR agonists in triplicate))]; assay type: functional
Oxytocin receptor, sequence (P30559 whole entry): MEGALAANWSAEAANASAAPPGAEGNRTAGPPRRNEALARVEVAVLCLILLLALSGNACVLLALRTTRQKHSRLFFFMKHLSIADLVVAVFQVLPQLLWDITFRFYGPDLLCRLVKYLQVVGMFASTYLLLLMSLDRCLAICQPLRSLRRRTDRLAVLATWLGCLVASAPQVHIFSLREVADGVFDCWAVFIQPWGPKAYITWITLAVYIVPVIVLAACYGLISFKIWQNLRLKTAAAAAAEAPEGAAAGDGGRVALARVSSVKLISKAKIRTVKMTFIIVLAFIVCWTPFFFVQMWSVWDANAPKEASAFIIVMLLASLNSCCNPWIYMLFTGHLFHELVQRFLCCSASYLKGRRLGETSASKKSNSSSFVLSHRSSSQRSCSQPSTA

[2] = molecular target: Vasopressin V1a receptor (Homo sapiens, UniProt P37288); test: Counterscreen for Oxytocin Receptor (OXTR) agonists: Fluorescence-based cell-based high throughput dose response assay to identify agonists of the vasopressin 1 receptor (V1R). [Related pubchem assays: 2435 (Primary screen (OXTR agonists in singlicate)), 434991 (Counterscreen (V1R agonists in triplicate)), 2482 (Summary (OXTR agonists)) …; assay type: functional
Vasopressin V1a receptor, sequence (P37288 whole entry, the tested form may be a part): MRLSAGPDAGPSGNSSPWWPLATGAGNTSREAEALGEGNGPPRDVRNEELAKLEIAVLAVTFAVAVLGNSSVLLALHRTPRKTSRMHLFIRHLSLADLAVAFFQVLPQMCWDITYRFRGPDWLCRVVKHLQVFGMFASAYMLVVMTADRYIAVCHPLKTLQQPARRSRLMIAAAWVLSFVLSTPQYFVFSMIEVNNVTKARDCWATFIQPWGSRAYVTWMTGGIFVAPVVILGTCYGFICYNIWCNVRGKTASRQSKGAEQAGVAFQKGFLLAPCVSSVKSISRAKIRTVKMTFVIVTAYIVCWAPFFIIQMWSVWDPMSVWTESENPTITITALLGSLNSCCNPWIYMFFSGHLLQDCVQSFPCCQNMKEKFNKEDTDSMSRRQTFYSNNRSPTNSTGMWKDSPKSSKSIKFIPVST

[3] = molecular target: Photoreceptor-specific nuclear receptor (Homo sapiens, UniProt Q9Y5X4); assay type: functional, cell-based;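 further: CHO-S cells with Gal4-NCOR and VP16-NR2E3 two-hybrid luciferase reporter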
Photoreceptor-specific nuclear receptor, sequence (Q9Y5X4 whole entry, the tested form may be a part): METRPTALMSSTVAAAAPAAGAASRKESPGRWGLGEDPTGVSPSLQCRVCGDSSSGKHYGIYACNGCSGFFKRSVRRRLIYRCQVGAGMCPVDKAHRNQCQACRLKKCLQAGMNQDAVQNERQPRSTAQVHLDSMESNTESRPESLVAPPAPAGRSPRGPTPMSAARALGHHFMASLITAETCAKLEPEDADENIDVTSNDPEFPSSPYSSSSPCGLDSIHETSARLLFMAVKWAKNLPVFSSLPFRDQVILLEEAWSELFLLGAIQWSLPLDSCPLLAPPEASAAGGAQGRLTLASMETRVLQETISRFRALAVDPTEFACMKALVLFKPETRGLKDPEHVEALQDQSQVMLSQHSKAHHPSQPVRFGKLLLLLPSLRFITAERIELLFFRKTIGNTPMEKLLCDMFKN

[4] = tested on: BJ; test: cytotoxicity toward BJ-TERT fibroblasts, dose response, cell-based, RAS-independent, luminescence (AID 1933); assay type: functional; conditions: Homo sapiens
[5] = tested on: BJ; test: cytotoxicity toward BJ-TERT-LT-ST fibroblasts, dose response, cell-based, RAS-independent, luminescence (AID 1935); assay type: functional; conditions: Homo sapiens;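 further: BJ fibroblasts immortalized with TERT plus LT and ST oncogenes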
[6] = tested on: BJ; test: cells; assay type: functional, cell-based; conditions: Homo sapiens
[7] = THP-1 cell cytotoxicity, dose response, cytotoxicity control for non-replicating M. tuberculosis project (AID 489025); assay type: functional
[8] = molecular target: T1, Sphingosine 1-phosphate receptor 4 (Homo sapiens, UniProt O95977); test: Fluorescence dose response cell-based high throughput screening assay for antagonists of the Sphingosine 1-Phosphate Receptor 4 (S1P4). [Related pubchem assays: 1524 (Confirmation in triplicates.), 1510 (Primary screen.)]; assay type: functional
T1 sequence (O95977 whole entry): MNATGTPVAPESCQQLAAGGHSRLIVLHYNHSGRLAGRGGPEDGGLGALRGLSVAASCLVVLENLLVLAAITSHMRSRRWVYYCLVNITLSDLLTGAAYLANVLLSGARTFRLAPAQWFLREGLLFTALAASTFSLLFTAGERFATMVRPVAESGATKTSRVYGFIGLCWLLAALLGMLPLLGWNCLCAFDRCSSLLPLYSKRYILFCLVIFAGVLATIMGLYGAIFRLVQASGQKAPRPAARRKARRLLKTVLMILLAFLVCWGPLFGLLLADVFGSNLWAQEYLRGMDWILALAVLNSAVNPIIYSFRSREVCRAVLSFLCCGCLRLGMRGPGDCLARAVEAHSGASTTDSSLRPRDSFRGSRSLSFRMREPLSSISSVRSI

[9] = cytotoxicity toward DRD oncogenic fibroblasts, dose response, cell-based, non-viral oncogenic, luminescence (AID 1934); assay type: functional; conditions: Homo sapiens
[10] = cytotoxicity in HEK-293T cells, dose response, cytotoxicity control for TCR NF-kB inhibitor project, luminescence, T-cell screen hits (AID 489026); assay type: functional, cell-based;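 further: cells exposed to compound about 14 hours before the viability readout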
[11] = molecular target: T2, Heat shock factor protein 1 (Mus musculus, UniProt P38532); test: inhibition of MG132-induced HSE-luciferase signal, confirmation, cell-based, NIH3T3, luminescence, dose retest (AID 2382); assay type: functional;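 further: NIH3T3 fibroblasts with HSF1-driven luciferase reporter stressed by proteasome inhibitor MG132; luminescence from HSF1-driven luciferase expression after 8 hours of MG132 stress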
T2 sequence (P38532 whole entry): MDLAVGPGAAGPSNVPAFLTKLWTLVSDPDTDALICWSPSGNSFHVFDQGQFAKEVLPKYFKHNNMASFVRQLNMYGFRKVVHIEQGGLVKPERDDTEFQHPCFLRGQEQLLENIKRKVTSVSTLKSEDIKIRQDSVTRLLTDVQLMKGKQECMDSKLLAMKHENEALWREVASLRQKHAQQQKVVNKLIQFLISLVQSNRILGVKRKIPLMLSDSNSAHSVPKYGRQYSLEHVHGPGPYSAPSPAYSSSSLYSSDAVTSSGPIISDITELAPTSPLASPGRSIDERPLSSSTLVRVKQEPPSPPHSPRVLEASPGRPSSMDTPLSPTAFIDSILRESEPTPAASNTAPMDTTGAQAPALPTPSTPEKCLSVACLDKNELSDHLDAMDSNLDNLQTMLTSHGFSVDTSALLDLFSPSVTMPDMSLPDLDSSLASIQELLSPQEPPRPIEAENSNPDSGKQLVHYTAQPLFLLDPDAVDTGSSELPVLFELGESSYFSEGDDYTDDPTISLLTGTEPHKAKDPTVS

[12] = molecular target: T3, G-protein coupled receptor 55 (Homo sapiens, UniProt Q9Y2T6); test: GPR55 agonists via beta-arrestin recruitment, primary screen, imaging, U2OS cells, beta-arrestin-GFP redistribution (AID 1961); assay type: functional
T3 sequence (Q9Y2T6 whole entry): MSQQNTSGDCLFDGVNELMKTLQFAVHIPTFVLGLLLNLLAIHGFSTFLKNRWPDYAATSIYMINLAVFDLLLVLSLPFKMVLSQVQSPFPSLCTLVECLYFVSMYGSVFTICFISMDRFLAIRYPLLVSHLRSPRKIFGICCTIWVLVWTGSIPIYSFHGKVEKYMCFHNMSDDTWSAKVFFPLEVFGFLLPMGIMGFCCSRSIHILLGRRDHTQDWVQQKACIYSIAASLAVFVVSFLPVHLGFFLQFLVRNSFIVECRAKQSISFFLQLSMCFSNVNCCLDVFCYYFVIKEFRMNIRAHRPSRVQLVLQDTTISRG

[13] = tested on: BJ; test: cytotoxicity toward Ras-transformed BJeLR fibroblasts, dose response, cell-based, alamar blue fluorescence, cherrypicked samples (AID 2631); assay type: functional; conditions: Homo sapiens;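 further: confirmatory dose-response assay in RAS-dependent BJ fibroblasts engineered with TERT, LT and ST, with cytotoxicity read by fluorescence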
[14] = molecular target: Sphingosine 1-phosphate receptor 1 (Homo sapiens, UniProt P21453); assay type: functional;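 further: Tango beta-arrestin reporter U2OS cells stimulated with S1P near its EC80; inhibitor potency meaning antagonism of receptor activation by the natural agonist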
Sphingosine 1-phosphate receptor 1, sequence (P21453 whole entry): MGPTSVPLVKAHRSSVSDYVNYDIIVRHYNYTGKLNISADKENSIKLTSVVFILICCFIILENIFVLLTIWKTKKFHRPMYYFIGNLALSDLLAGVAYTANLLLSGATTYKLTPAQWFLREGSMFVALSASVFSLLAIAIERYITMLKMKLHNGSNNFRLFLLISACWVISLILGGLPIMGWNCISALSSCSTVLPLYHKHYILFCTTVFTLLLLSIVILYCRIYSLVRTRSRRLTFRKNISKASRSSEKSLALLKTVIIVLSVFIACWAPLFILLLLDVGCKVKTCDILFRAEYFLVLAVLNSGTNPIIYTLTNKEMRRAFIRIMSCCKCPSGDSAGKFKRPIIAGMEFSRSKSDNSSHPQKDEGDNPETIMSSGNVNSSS

[15] = Luminescence Cell-Based Dose Response HTS to Identify Inhibitors of 5'UTR Stem-Loop Driven Prion Protein mRNA Translation in H4 Neuroglioblastoma Cells. [Related pubchem assays: 1827 (Project Summary), 1813 (Primary HTS)]; assay type: functional
[16] = inhibitors of SNCA 5'UTR-driven reporter translation, confirmation, H4 neuroglioma cells, luminescence (AID 1988); assay type: functional, cell-based
[17] = luciferase reporter signal reduction – luminescence, H4-C neuroglioblastoma cells, dose response (AID 2458); assay type: functional, cell-based;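 further: H4 neuroglioblastoma cells stably carrying a luciferase reporter gene fusion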
[18] = inhibitors of SNCA 5'UTR-driven translation, confirmation, luminescence, H4 neuroglioblastoma cells, dose confirmation (AID 2454); assay type: functional, cell-based;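 further: H4 neuroglioblastoma cells carrying an alpha-synuclein 5'UTR luciferase reporter; potency for inhibition of the luciferase signal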
[19] = inhibitors of firefly luciferase expression or activity, dose response, H4 neuroglioma cells, luminescence (AID 1990); assay type: functional, cell-based
[20] = cells; assay type: functional, cell-based
[21] = molecular target: T4, Kappa-type opioid receptor (Homo sapiens, UniProt P41145); assay type: functional
T4 sequence (P41145 whole entry): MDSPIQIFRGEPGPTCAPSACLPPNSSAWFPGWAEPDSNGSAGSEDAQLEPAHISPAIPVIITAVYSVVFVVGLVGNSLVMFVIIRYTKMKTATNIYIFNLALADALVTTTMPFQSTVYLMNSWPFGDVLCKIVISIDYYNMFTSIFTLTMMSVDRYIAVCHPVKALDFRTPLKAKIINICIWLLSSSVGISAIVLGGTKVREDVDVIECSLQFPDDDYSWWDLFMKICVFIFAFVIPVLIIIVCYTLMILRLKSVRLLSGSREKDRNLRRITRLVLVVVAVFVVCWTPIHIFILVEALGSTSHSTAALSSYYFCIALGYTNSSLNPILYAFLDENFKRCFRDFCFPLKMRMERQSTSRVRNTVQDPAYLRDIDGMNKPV

[22] = molecular target: Beta-galactosidase (Escherichia coli, UniProt Q8VNN2); assay type: functional
Beta-galactosidase, sequence (Q8VNN2 whole entry): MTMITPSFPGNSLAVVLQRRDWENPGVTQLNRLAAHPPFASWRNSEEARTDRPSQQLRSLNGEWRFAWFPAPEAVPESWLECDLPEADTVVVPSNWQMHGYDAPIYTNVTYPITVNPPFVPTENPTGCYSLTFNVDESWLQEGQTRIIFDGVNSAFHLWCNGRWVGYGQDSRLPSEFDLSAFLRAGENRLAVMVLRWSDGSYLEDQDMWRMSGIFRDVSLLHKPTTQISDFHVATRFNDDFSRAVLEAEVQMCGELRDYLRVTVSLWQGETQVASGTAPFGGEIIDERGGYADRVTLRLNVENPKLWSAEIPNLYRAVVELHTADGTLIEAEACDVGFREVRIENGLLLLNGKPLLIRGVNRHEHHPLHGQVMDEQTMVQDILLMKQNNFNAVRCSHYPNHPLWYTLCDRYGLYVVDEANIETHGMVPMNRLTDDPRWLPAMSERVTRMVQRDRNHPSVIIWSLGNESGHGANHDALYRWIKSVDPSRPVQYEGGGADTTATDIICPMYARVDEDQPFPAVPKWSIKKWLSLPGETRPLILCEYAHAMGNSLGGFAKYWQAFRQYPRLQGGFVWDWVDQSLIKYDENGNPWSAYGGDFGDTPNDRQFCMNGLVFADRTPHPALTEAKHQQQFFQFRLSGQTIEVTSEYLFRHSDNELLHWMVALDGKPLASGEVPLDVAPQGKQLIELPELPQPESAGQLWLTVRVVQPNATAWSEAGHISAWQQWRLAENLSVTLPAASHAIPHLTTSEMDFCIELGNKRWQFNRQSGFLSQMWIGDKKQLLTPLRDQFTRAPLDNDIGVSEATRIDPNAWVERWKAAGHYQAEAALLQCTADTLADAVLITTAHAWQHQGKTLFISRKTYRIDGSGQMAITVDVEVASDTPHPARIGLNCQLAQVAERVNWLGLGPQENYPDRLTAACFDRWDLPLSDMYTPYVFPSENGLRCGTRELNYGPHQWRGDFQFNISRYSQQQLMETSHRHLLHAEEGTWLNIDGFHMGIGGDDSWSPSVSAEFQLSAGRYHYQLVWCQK

[23] = enhancers of respiration in Yfh1-depleted yeast, dose response, Friedreich's ataxia, plus single-dose screen (AID 1465); assay type: functional;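 further: yeast depleted of Yfh1p frataxin homolog grown on glycerol needing respiration; WST-1 tetrazolium dye reduction as measure of cellular dehydrogenase metabolic activity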
[24] = molecular target: T3, G-protein coupled receptor 55; test: GPR55 antagonists blocking LPI-driven arrestin recruitment, primary screen, imaging, U2OS, beta-arrestin-GFP, LPI agonist (AID 2013); assay type: functional;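 further: antagonist potency measured as reduced agonist-driven arrestin aggregation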
[25] = tested on: Streptococcus; test: Group A Streptococcus viability loss, dose response, counter-screen for streptokinase expression inhibitor project, luminescence, BacTiterGlo (AID 1915); assay type: functional, organism-based;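 further: potency for reduction of bacterial viability or growth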
[26] = molecular target: T5, Streptokinase A (Streptococcus pyogenes serotype M1, UniProt P10520); test: S. pyogenes streptokinase expression inhibitors, potency, dose response, plasminogen activation absorbance, OD405 (AID 1914); assay type: functional, Streptococcus pyogenes M1 GAS;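 further: secreted streptokinase activity via plasminogen activation per viability signal from cell pellet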
T5 sequence (P10520 whole entry): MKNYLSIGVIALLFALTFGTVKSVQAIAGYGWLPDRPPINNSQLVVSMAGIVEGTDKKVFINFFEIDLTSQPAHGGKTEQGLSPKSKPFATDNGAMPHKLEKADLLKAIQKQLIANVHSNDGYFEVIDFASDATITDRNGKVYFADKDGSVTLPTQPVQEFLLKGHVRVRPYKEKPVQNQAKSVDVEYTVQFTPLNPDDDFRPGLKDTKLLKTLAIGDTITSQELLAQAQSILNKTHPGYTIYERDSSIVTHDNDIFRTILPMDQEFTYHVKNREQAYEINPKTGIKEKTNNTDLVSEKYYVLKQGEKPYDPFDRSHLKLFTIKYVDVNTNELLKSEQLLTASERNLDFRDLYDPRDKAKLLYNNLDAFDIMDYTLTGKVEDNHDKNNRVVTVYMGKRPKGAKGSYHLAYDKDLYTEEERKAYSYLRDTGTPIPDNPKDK

[27] = molecular target: Matrix metalloproteinase-14 (Homo sapiens, UniProt P50281); test: Dose Response confirmation of uHTS hits for a small molecule inhibitors of MT1-MMP activation in a fluorescence assay set 2.; assay type: functional
[28] = tested on: Streptococcus sp. 'group A'; test: growth inhibition of control SK(-) GAS strain, dose response, counter-screen for streptokinase expression inhibitor project, luminescence, kanamycin, BacTiterGlo, confirmation (AID 1900); assay type: functional, organism-based
[29] = molecular target: T4, Kappa-type opioid receptor; assay type: functional; remark: listed apart in the source
[30] = reduction of Shn3 3'UTR firefly luciferase signal, dose response, Schnurri-3 inhibitor project, cell-based, Clone20 osteoblasts, cherry-pick, set 2 (AID 720490); assay type: functional;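 further: actives lower the luminescence signal as inhibitors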
[31] = HepG2 cell cytotoxicity, dose response, cytotoxicity control for Shn3 inhibitor project, CellTiter-Glo, cherry-picked (AID 624134); assay type: functional, cell-based
[32] = Luminescence-based counterscreen assay for KLF5 inhibitors: dose response cell-based high throughput screening assay to identify cytotoxic compounds using the IEC-6 intestinal epithelial cell line. [Related pubchem assays: 1700 (Primary screen.), 1834 (Confirmation screen.), 1858 (Summary AID.), 1905 (Counterscreen.)]; assay type: functional
[33] = Shn3 3'UTR reporter inhibitors, dose response, cell-based, Clone20 osteoblasts, firefly luciferase, cherry-picked (AID 624132); assay type: functional;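 further: firefly luciferase luminescence from reporter carrying the Shn3 3'UTR in osteoblasts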
[34] = molecular target: T6, Protein skinhead-1 (Caenorhabditis elegans, UniProt P34707); assay type: functional
T6 sequence (P34707 whole entry): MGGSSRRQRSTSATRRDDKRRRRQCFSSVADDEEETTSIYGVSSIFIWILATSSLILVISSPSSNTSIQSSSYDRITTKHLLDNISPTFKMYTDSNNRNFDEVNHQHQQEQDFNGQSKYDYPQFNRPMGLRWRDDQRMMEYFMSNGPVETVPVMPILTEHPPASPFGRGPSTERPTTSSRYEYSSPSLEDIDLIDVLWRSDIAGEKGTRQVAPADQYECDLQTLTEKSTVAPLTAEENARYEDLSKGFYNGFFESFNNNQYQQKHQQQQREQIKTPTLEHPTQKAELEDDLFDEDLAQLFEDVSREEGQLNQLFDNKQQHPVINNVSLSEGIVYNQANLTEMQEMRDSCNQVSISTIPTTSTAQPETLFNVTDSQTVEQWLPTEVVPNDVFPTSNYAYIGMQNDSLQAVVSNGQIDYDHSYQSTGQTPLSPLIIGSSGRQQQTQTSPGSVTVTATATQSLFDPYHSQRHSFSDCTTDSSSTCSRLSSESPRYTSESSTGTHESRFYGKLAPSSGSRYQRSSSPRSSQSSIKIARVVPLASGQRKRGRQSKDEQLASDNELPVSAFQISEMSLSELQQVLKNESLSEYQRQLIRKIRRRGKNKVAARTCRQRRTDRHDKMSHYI

[35] = molecular target: NS3 (Hepatitis C virus, UniProt A3EZJ3); test: PubChem AID 2173; parameters: species or system Hepacivirus hominis
NS3, sequence (A3EZJ3 whole entry): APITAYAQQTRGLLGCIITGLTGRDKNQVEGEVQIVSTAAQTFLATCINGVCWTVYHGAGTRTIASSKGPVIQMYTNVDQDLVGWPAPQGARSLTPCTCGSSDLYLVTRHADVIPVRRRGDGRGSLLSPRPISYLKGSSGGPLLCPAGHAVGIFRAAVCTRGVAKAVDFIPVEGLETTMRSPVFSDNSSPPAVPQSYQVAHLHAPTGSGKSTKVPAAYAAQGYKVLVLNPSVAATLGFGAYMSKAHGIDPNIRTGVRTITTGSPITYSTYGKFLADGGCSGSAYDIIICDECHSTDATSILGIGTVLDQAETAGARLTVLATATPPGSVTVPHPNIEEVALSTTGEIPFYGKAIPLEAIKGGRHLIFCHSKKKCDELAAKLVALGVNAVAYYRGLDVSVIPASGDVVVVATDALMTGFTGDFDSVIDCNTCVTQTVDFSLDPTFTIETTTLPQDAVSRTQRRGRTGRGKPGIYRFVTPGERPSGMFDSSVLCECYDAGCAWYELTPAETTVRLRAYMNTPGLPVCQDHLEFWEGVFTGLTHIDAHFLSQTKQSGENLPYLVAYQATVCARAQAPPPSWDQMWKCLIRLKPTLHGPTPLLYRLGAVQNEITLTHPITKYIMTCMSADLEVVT

[36] = molecular target: Induced myeloid leukemia cell differentiation protein Mcl-1 (Homo sapiens, UniProt Q07820); assay type: functional
Induced myeloid leukemia cell differentiation protein Mcl-1, sequence (Q07820 whole entry): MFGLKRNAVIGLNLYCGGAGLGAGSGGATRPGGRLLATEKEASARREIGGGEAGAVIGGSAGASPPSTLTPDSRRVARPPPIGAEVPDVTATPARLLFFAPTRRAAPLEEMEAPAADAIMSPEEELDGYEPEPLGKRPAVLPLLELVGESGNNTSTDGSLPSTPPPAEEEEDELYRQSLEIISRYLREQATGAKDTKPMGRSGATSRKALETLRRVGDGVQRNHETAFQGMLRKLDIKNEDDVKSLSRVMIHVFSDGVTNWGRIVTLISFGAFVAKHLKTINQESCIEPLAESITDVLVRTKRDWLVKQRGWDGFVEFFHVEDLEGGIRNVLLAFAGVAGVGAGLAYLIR

Cc1ccccc1Cn1nnc(C(=O)Nc2cccc(C)c2C)c1N
EC50 [1]: > 29.9 µM (not active) | EC50 [2]: > 29.9 µM (not active) | IC50 [3]: 39.8 µM (inactive)

CC1(C)C[C@H]2C=C(C=O)[C@]3(C=O)C[C@]3(C)[C@H]2C1 [ISOVELLERAL]
EC50 [4]: 5.11 µM (inconclusive) | EC50 [5]: 3.8 µM (inconclusive) | EC50 [6]: 5.77 µM (inconclusive) | CC50 [7]: 29.5 µM (active) | IC50 [8]: 0.253 µM (active) | EC50 [9]: 5.29 µM (inconclusive) | IC50 [10]: > 80 µM (inactive) | EC50 [11]: 0.53 µM (active) | EC50 [12]: < 0.5 µM (active) | EC50 [13]: 0.575 µM (inconclusive) | IC50 [14]: 4.96 µM (active)

CCC(C)(C)c1ccc(Oc2ccc(N)cc2)cc1
EC50 [15]: 0.432 µM (active) | EC50 [16]: < 0.1 µM (active) | EC50 [17]: 0.216 µM (active) | EC50 [18]: 0.476 µM (active) | EC50 [19]: < 0.1 µM (active) | EC50 [20]: 0.482 µM (active)

COc1ccccc1N=Nc1nc(-c2ccccc2)c(-c2ccccc2)[nH]1
IC50 [21]: > 32 µM | EC50 [22]: 23.9 µM (active) | EC50 [23]: > 100 µM (active) | IC50 [24]: 0.587 µM (active) | EC50 [25]: > 150 µM (not active) | EC50 [26]: 89.6 µM (active) | IC50 [27]: 36.8 µM (inactive) | EC50 [28]: 1.97 µM (active) | IC50 [29]: 24 µM (inactive)

c1ccc(-c2noc(-c3ccc4ccccc4c3)n2)nc1
AC50 [30]: 5.85 µM (active) | AC50 [31]: 27.6 µM (active) | IC50 [32]: 31.9 µM (not active) | AC50 [33]: 1.98 µM (active) | IC50 [10]: > 80 µM (inactive) | IC50 [34]: > 100 µM (inactive)

CNc1ccc(Br)cc(C(=O)/C=C/c2cccc(Cl)c2Cl)c1=O
IC50 [35]: 5.02 µM (active) | IC50 [36]: 2.63 µM (active)
